The values below come from publication PMC9101869, “5,2′-Dibromo-2,4′,5′-trihydroxydiphenylmethanone Inhibits LPS-Induced Vascular Inflammation by Targeting the Cav1 Protein” (Molecules, 2022).

SMILES strings stand for the structures.

This test deals with T1, Cav1 (Homo sapiens, UniProt Q03135).
T1 construct: commercial human recombinant Cav1 (Cloud-Clone Corp.); biotinylated for BLI
T1 sequence (Q03135 2-178): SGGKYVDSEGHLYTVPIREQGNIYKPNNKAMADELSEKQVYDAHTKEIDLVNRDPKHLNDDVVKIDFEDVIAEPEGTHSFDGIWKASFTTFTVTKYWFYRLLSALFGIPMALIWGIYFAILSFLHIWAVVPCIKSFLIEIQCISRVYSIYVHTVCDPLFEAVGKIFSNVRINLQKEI
Briefly: intrinsic fluorescence quenching, double logarithmic fit. The class given is binding. The settings on record: 298 K; Cav1 5.0 × 10^−9 mol/L; excitation 280 nm; n fitted as free exponent; read-out: Kb(L.mol^-1) (converted). The text has this: intrinsic fluorescence quenching, double logarithmic fit on Cav1

Turning to `O=C(c1cc(Br)ccc1O)c1cc(O)c(O)cc1Br` [TDD, 5,2′-dibromo-2,4′,5′-trihydroxydiphenylmethanone], the Kd is 0.917 nM.
